Source: patent US20200030236A1, “BIOPATCH, BIOHEATER, BIOSENSOR AND BIOELECTRONIC PATCH DEVICE” (SEOUL NATIONAL UNIVERSITY R&DB FOUNDATION, priority 2016, published 2020)

Tested on: brain tumors
Assay: Size change in brain tumor and survival rate in rats having brain tumors
Assay type: in vivo
Conditions: (a) drug injected by intravenous injection, rats (FIGS. 27, 28)
Source text: FIGS. 27 to 29 show the result of comparing the size change in brain tumor and the survival rate according to four treatment methods applied to rats having brain tumors.

In the case of `COc1cccc2c1C(=O)c1c(O)c3c(c(O)c1C2=O)C[C@@](O)(C(=O)CO)C[C@@H]3O[C@H]1C[C@H](N)[C@H](O)[C@H](C)O1` [drug, doxorubicin], the “size change in brain tumor” value is reported as “rapidly increases with time”.
